This note sets out measurements from patent US8748417B2, “Amino-pyrrolidine-azetidine diamides as monoacylglycerol lipase inhibitors” (Janssen Pharmaceutica, NV, priority 2010, dated 2014).

The first assay deals with T1, purified wild type MGL (wt-MGLL 6H-11-313) (Homo sapiens, UniProt Q99685).
T1 construct: purified wild type MGL (wt-MGLL 6H-11-313)
T1 sequence (Q99685 1-303): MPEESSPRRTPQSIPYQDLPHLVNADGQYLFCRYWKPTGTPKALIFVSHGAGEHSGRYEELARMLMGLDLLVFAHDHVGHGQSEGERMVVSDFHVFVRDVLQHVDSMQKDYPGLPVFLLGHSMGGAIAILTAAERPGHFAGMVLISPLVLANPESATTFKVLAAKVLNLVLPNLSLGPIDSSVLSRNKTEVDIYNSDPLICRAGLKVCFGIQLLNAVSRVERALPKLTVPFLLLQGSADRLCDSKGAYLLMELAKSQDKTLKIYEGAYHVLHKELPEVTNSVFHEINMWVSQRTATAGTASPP
The assay is described as follows: MGL enzyme activity assay (4MU-B cleavage), wild type MGL. It counts as biochemical. The settings on record: wild type MGL 5 nM, 4MU-B 10 μM, 37° C.; read-out: MGL wild type inh IC50. The protocol: All rate-based assays were performed in black 384-well polypropylene PCR microplates (Abgene) in a total volume of 30 μL. Substrate 4-methylumbelliferyl butyrate (4MU-B; Sigma) and either purified mutant MGL (mut-MGLL 11-313 L179S L186S) or purified wild type MGL (wt-MGLL 6H-11-313) were diluted separately into 20 mM PIPES buffer (pH=7.0), containing 150 mM NaCl and 0.001% Tween 20. Compounds of Formula (I) were pre-dispensed (50 nL) into the assay plate using a Cartesian Hummingbird prior to adding 4MU-B (25 μL of 1.2× solution to a final concentration of 10 μM) followed by enzyme (5 μL of a 6× solution to a final concentration of 5 nM) to initiate the reaction. Final compound concentrations ranged from 17 to 0.0003 μM. The fluorescence change due to 4MU-B cleavage was monitored with excitation and emission wavelengths of 335 and 440 nm, respectively, and a bandwidth of 10 nm (Safire^2, Tecan) at 37° C. for 5 min.
The IC50 values for the following compounds were determined using Microsoft Office Excel from a fit of the equation to the concentration-response plot of the fractional activity as a function of inhibitor concentration.
As for `O=C(c1nccs1)N1CC[C@H](NC2CN(C(=O)c3sc4cc(Cl)ccc4c3C(F)(F)F)C2)C1` [Cpd 183, (3S)-N-(1-{[6-Chloro-3-(trifluoromethyl)-1-benzothiophen-2-yl]carbonyl}azetidin-3-yl)-1-(1,3-thiazol-2-ylcarbonyl)pyrrolidin-3-amine], the IC50 – broadly, the point on the concentration scale where inhibition reaches its midpoint – was 23.1 nM.

Regarding `O=C(c1ccc(Cc2cccc(C(F)(F)F)c2)cc1)N1CC(N[C@H]2CCN(C(=O)c3cscn3)C2)C1` [Cpd 127, (3S)-1-(1,3-Thiazol-4-ylcarbonyl)-N-[1-({4-[3-(trifluoromethyl)benzyl]phenyl}carbonyl)azetidin-3-yl]pyrrolidin-3-amine], the IC50 is under 5 nM.

With `O=C(c1ccc2c(ccn2-c2ccc(C(F)(F)F)cc2)c1)N1CC(N[C@H]2CCN(C(=O)c3nccs3)C2)C1` [Cpd 118, (3S)-1-(1,3-Thiazol-2-ylcarbonyl)-N-[1-({1-[4-(trifluoromethyl)phenyl]-1H-indol-5-yl}carbonyl)azetidin-3-yl]pyrrolidin-3-amine], the IC50 was under 5 nM.

In the case of `O=C(c1ccccc1)N1CC[C@H](NC2CN(C(=O)c3ccc(-c4cccc(C(F)(F)F)c4)cc3F)C2)C1` [Cpd 152, (3S)-N-(1-{[3-Fluoro-3′-(trifluoromethyl)biphenyl-4-yl]carbonyl}azetidin-3-yl)-1-(phenylcarbonyl)pyrrolidin-3-amine], the IC50 was determined as 35.2 nM.

On to `Cc1ccc2sc(C(=O)N3CC(N[C@H]4CCN(C(=O)c5cscn5)C4)C3)c(C(F)(F)F)c2c1` [Cpd 184, (3S)-N-(1-{[5-Methyl-3-(trifluoromethyl)-1-benzothiophen-2-yl]carbonyl}azetidin-3-yl)-1-(1,3-thiazol-4-ylcarbonyl)pyrrolidin-3-amine], for which the IC50 was 205 nM.

As to `Cc1c(C(=O)N2CC(N[C@H]3CCN(C(=O)c4ccccc4)C3)C2)sc2cc(F)ccc12` [Cpd 86, (3S)-N-{1-[(6-Fluoro-3-methyl-1-benzothiophen-2-yl)carbonyl]azetidin-3-yl}-1-(phenylcarbonyl)pyrrolidin-3-amine], the half-inhibitory concentration (IC50) worked out at 298 nM.

With `O=C(c1ccccc1)N1CC[C@H](NC2CN(C(=O)c3sc4cc(C(F)(F)F)ccc4c3-c3ccccc3)C2)C1` [Cpd 74, (3S)-1-(Phenylcarbonyl)-N-(1-{[3-phenyl-6-(trifluoromethyl)-1-benzothiophen-2-yl]carbonyl}azetidin-3-yl)pyrrolidin-3-amine], the IC50 turned out to be 277 nM.

Regarding `O=C(c1cc2ccc(Br)cc2s1)N1CC(N[C@H]2CCN(C(=O)c3nccs3)C2)C1` [Cpd 95, (3S)-N-{1-[(6-Bromo-1-benzothiophen-2-yl)carbonyl]azetidin-3-yl}-1-(1,3-thiazol-2-ylcarbonyl)pyrrolidin-3-amine], the IC50 was 410 nM.

As to `O=C(c1ccccc1)N1CC[C@H](NC2CN(C(=O)c3sc4cc(Cl)ccc4c3C(F)(F)F)C2)C1` [Cpd 182, (3S)-N-(1-{[6-Chloro-3-(trifluoromethyl)-1-benzothiophen-2-yl]carbonyl}azetidin-3-yl)-1-(phenylcarbonyl)pyrrolidin-3-amine], the concentration for half-maximal inhibition (IC50) amounted to 217 nM.

As for `Cc1c(C(=O)N2CC(N(C=O)[C@H]3CCN(C(=O)c4cscn4)C3)C2)sc2ccc(Cl)cc12` [Cpd 83, N-{1-[(5-Chloro-3-methyl-1-benzothiophen-2-yl)carbonyl]azetidin-3-yl}-N-[(3S)-1-(1,3-thiazol-4-ylcarbonyl)pyrrolidin-3-yl]formamide], the IC50 is 2440 nM.

`O=C(c1ccc2c(-c3ccccc3)ncnc2c1)N1CC(N[C@H]2CCN(C(=O)c3ccccc3)C2)C1` [Cpd 108, (3S)-1-(Phenylcarbonyl)-N-{1-[(4-phenylquinazolin-7-yl)carbonyl]azetidin-3-yl}pyrrolidin-3-amine]: the half-maximal inhibitory concentration (IC50) was 1030 nM.

Regarding `Cc1c(C(=O)N2CC(N[C@H]3CCN(C(=O)c4nccs4)C3)C2)sc2ccc(-c3ccc(C(F)(F)F)cc3)cc12` [Cpd 91, (3S)-N-[1-({3-Methyl-5-[4-(trifluoromethyl)phenyl]-1-benzothiophen-2-yl}carbonyl)azetidin-3-yl]-1-(1,3-thiazol-2-ylcarbonyl)pyrrolidin-3-amine], the IC50 was under 5 nM.

`O=C(c1ccc2c(-c3ccc(C(F)(F)F)cc3)ncnc2c1)N1CC(N[C@H]2CCN(C(=O)c3ccccc3)C2)C1` [Cpd 109, (3S)-1-(Phenylcarbonyl)-N-[1-({4-[4-(trifluoromethyl)phenyl]quinazolin-7-yl}carbonyl)azetidin-3-yl]pyrrolidin-3-amine]: the IC50 is 857 nM.

With `O=C(c1cc2cc(Br)ccc2s1)N1CC(N[C@H]2CCN(C(=O)c3nccs3)C2)C1` [Cpd 97, (3S)-N-{1-[(5-Bromo-1-benzothiophen-2-yl)carbonyl]azetidin-3-yl}-1-(1,3-thiazol-2-ylcarbonyl)pyrrolidin-3-amine], the IC50 was 133 nM.

For the compound `O=C(c1ccc2c(-c3ccc(F)cc3)c[nH]c2c1)N1CC(N[C@H]2CCN(C(=O)c3ccccc3)C2)C1` [Cpd 191, (3S)-N-(1-{[3-(4-Fluorophenyl)-1H-indol-6-yl]carbonyl}azetidin-3-yl)-1-(phenylcarbonyl)pyrrolidin-3-amine], the half-inhibitory concentration (IC50) was determined as 297 nM.

In the case of `Cn1nc(-c2cccc(F)c2)c2cc(C(=O)N3CC(N[C@H]4CCN(C(=O)c5ccccc5)C4)C3)ccc21` [Cpd 201, (3S)-N-(1-{[3-(3-Fluorophenyl)-1-methyl-1H-indazol-5-yl]carbonyl}azetidin-3-yl)-1-(phenylcarbonyl)pyrrolidin-3-amine], the 50% inhibitory concentration (IC50) is 459 nM.

`Cc1nc(-c2ccccc2F)sc1C(=O)N1CC(N[C@H]2CCN(C(=O)c3nccs3)C2)C1` [Cpd 134, (3S)-N-(1-{[2-(2-Fluorophenyl)-4-methyl-1,3-thiazol-5-yl]carbonyl}azetidin-3-yl)-1-(1,3-thiazol-2-ylcarbonyl)pyrrolidin-3-amine]: the half-maximal inhibitory concentration (IC50) was 2930 nM.

In the case of `O=C(c1ccc2c(-c3ccc(C(F)(F)F)cc3)ncnc2c1)N1CC(N[C@H]2CCN(C(=O)c3nccs3)C2)C1` [Cpd 111, (3S)-1-(1,3-Thiazol-2-ylcarbonyl)-N-[1-({4-[4-(trifluoromethyl)phenyl]quinazolin-7-yl}carbonyl)azetidin-3-yl]pyrrolidin-3-amine], the IC50 came to 179 nM.

Turning to `O=C(c1ccc2c(cnn2-c2ccccc2)c1)N1CC(N[C@H]2CCN(C(=O)c3ccccc3)C2)C1` [Cpd 156, (3S)-1-(Phenylcarbonyl)-N-{1-[(1-phenyl-1H-indazol-5-yl)carbonyl]azetidin-3-yl}pyrrolidin-3-amine], the concentration for half-maximal inhibition (IC50) came out at 482 nM.

On to `O=C(c1ccccc1)N1CC[C@H](NC2CN(C(=O)c3sc4cc(C(F)(F)F)ccc4c3C3CC3)C2)C1` [Cpd 75, (3S)-N-(1-{[3-Cyclopropyl-6-(trifluoromethyl)-1-benzothiophen-2-yl]carbonyl}azetidin-3-yl)-1-(phenylcarbonyl)pyrrolidin-3-amine], for which the IC50 was found to be 210 nM.

Take `Cc1ccc2c(C(F)(F)F)c(C(=O)N3CC(N[C@H]4CCN(C(=O)c5cscn5)C4)C3)sc2c1` [Cpd 185, (3S)-N-(1-{[6-Methyl-3-(trifluoromethyl)-1-benzothiophen-2-yl]carbonyl}azetidin-3-yl)-1-(1,3-thiazol-4-ylcarbonyl)pyrrolidin-3-amine]: the IC50 turned out to be 488 nM.

Consider `Cc1c(C(=O)N2CC(N[C@H]3CCN(C(=O)c4cscn4)C3)C2)sc2cc(F)ccc12` [Cpd 88, (3S)-N-{1-[(6-Fluoro-3-methyl-1-benzothiophen-2-yl)carbonyl]azetidin-3-yl}-1-(1,3-thiazol-4-ylcarbonyl)pyrrolidin-3-amine], for which the concentration for half-maximal inhibition (IC50) worked out at 152 nM.

For the compound `O=C(c1ccc2nc(-c3ccccc3)sc2c1)N1CC(N[C@H]2CCN(C(=O)c3ccccc3)C2)C1` [Cpd 157, (3S)-N-{1-[(2-Phenyl-1,3-benzothiazol-6-yl)carbonyl]azetidin-3-yl}-1-(phenylcarbonyl)pyrrolidin-3-amine], the IC50 was 211 nM.

Consider `Cn1nc(-c2ccccc2)c2cc(C(=O)N3CC(N[C@H]4CCN(C(=O)c5ccccc5)C4)C3)ccc21` [Cpd 197, (3S)-N-{1-[(1-Methyl-3-phenyl-1H-indazol-5-yl)carbonyl]azetidin-3-yl}-1-(phenylcarbonyl)pyrrolidin-3-amine], for which the IC50 was determined as 199 nM.

The subject of a further assay is MGL (rat brain homogenate). The assay is described as follows: 2-AG accumulation assay in rat brain homogenate. It counts as biochemical. The settings on record: compound 1 μM, percent of vehicle 2-AG accumulation. The protocol: After a 15-min incubation time at 37° C., CaCl2 (final concentration=10 mM) was added and then incubated for 15 min at 37° C. in a total volume of 5 mL. The reactions were stopped with 6 mL organic solvent extraction solution of 2:1 chloroform/methanol. Accumulated 2-AG in the organic phase was measured by a HPLC/MS method, according to the following equation: percent vehicle=(2-AG accumulation in the presence of compound/2-AG accumulation in vehicle)×100.
For `O=C(c1nccs1)N1CC[C@H](NC2CN(C(=O)c3sc4cc(Cl)ccc4c3C(F)(F)F)C2)C1` [Cpd 183, (3S)-N-(1-{[6-Chloro-3-(trifluoromethyl)-1-benzothiophen-2-yl]carbonyl}azetidin-3-yl)-1-(1,3-thiazol-2-ylcarbonyl)pyrrolidin-3-amine], the “Rat Brain 2AG % VehCntrl (%) @1 μM” value is reported as 316%.

Take `O=C(c1ccc(Cc2cccc(C(F)(F)F)c2)cc1)N1CC(N[C@H]2CCN(C(=O)c3cscn3)C2)C1` [Cpd 127, (3S)-1-(1,3-Thiazol-4-ylcarbonyl)-N-[1-({4-[3-(trifluoromethyl)benzyl]phenyl}carbonyl)azetidin-3-yl]pyrrolidin-3-amine]: the “Rat Brain 2AG % VehCntrl (%) @1 μM” value was found to be 618%.

For the compound `O=C(c1ccc2c(ccn2-c2ccc(C(F)(F)F)cc2)c1)N1CC(N[C@H]2CCN(C(=O)c3nccs3)C2)C1` [Cpd 118, (3S)-1-(1,3-Thiazol-2-ylcarbonyl)-N-[1-({1-[4-(trifluoromethyl)phenyl]-1H-indol-5-yl}carbonyl)azetidin-3-yl]pyrrolidin-3-amine], the “Rat Brain 2AG % VehCntrl (%) @1 μM” value came out at 626%.

As for `O=C(c1ccccc1)N1CC[C@H](NC2CN(C(=O)c3ccc(-c4cccc(C(F)(F)F)c4)cc3F)C2)C1` [Cpd 152, (3S)-N-(1-{[3-Fluoro-3′-(trifluoromethyl)biphenyl-4-yl]carbonyl}azetidin-3-yl)-1-(phenylcarbonyl)pyrrolidin-3-amine], the “Rat Brain 2AG % VehCntrl (%) @1 μM” value is reported as 404%.
